From US10258603B2 (priority 2014, dated 2019) come the findings set out here.

In one experiment the target is T1, CECR2 (Homo sapiens, UniProt Q9BXF3).
T1 construct: 424-538 was cloned, expressed, and purified to homogeneity; Flag; made in house
T1 sequence (Q9BXF3 424-538 limits assumed): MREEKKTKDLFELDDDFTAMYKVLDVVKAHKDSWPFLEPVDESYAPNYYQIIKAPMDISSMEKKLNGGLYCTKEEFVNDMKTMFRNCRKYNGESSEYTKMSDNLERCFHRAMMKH
As to the kind of experiment: CECR2 TR-FRET Binding Assay. To be noted: IC50 (uM). From the text: IC50 Measurements for Inhibitors Using CECR2 TR-FRET Binding Assay
For `C=CCn1cc(C(=O)N(C)C2CCN(c3cc(OC)ncn3)CC2)c2cc[nH]c2c1=O` [Example 162, 6-allyl-N-[1-(6-methoxypyrimidin-4-yl)-4-piperidyl]-N-methyl-7-oxo-1H-pyrrolo[2,3-c]pyridine-4-carboxamide], the IC50 – broadly, the concentration at which inhibition is half-maximal – is 0.12 µM.
Take `C=CCn1cc(C(=O)N(C)C2CCN(c3cc(C(F)(F)F)ncn3)CC2)c2cc[nH]c2c1=O` [Example 164, 6-allyl-N-methyl-7-oxo-N-[1-[6-(trifluoromethyl)pyrimidin-4-yl]-4-piperidyl]-1H-pyrrolo[2,3-c]pyridine-4-carboxamide]: the IC50 amounted to 0.21 µM.
Still for that read-out and setting: the same measure for `C=CCn1cc(C(=O)N(C)C2CCN(c3cc(C)nc(C)n3)CC2)c2cc[nH]c2c1=O` [Example 165, 6-allyl-N-[1-(2,6-dimethylpyrimidin-4-yl)-4-piperidyl]-N-methyl-7-oxo-1H-pyrrolo[2,3-c]pyridine-4-carboxamide]: 0.087 µM; for `C=CCn1cc(C(=O)N(C)C2CCN(c3cc(-n4cccn4)ncn3)CC2)c2cc[nH]c2c1=O` [Example 170, 6-allyl-N-methyl-7-oxo-N-[1-(6-pyrazol-1-ylpyrimidin-4-yl)-4-piperidyl]-1H-pyrrolo[2,3-c]pyridine-4-carboxamide]: 0.042 µM.

Still in this experiment, the particulars now being: read-out: IC50.
As to `CN(C(=O)c1cn(C)c(=O)c2[nH]ccc12)C1CCN(c2ncc(C#N)cn2)CC1` [Example 141, N-[1-(5-cyanopyrimidin-2-yl)-4-piperidyl]-N,6-dimethyl-7-oxo-1H-pyrrolo[2,3-c]pyridine-4-carboxamide], the IC50 stood at 0.39 µM.
On the same count and under the same terms, then `CN(C(=O)c1cn(C)c(=O)c2[nH]ccc12)C1CCN(c2nccc(C(F)(F)F)n2)CC1` [Example 142, N,6-dimethyl-7-oxo-N-[1-[4-(trifluoromethyl)pyrimidin-2-yl]-4-piperidyl]-1H-pyrrolo[2,3-c]pyridine-4-carboxamide], with 0.29 µM.
The same measure, in the same setting: then `CN(C(=O)c1cn(C)c(=O)c2[nH]ccc12)C1CCN(c2cnccn2)CC1` [Example 143, N,6-dimethyl-7-oxo-N-(1-pyrazin-2-yl-4-piperidyl)-1H-pyrrolo[2,3-c]pyridine-4-carboxamide], with 0.4 µM; and `Cc1ccnc(N2CCC(N(C)C(=O)c3cn(C)c(=O)c4[nH]ccc34)CC2)n1` [Example 144, N,6-dimethyl-N-[1-(4-methylpyrimidin-2-yl)-4-piperidyl]-7-oxo-1H-pyrrolo[2,3-c]pyridine-4-carboxamide], with 0.43 µM; and `CN(C(=O)c1cn(C)c(=O)c2[nH]ccc12)C1CCN(c2cccnn2)CC1` [Example 145, N,6-dimethyl-7-oxo-N-(1-pyridazin-3-yl-4-piperidyl)-1H-pyrrolo[2,3-c]pyridine-4-carboxamide], with 0.41 µM.
As to `CN(C(=O)c1cn(C)c(=O)c2[nH]ccc12)C1CCN(c2ncc(F)cn2)CC1` [Example 147, N-[1-(5-fluoropyrimidin-2-yl)-4-piperidyl]-N,6-dimethyl-7-oxo-1H-pyrrolo[2,3-c]pyridine-4-carboxamide], the half-maximal inhibitory concentration (IC50) came to 0.51 µM.
Turning to `CN(CC1CCN(c2ccncn2)CC1)C(=O)c1cn(C)c(=O)c2[nH]ccc12` [Example 158, N,6-dimethyl-7-oxo-N-[(1-pyrimidin-4-yl-4-piperidyl)methyl]-1H-pyrrolo[2,3-c]pyridine-4-carboxamide], the concentration for half-maximal inhibition (IC50) stood at 0.79 µM.
Turning to `C=CCn1cc(C(=O)N(C)C2CCN(c3ccnc(C#N)n3)CC2)c2cc[nH]c2c1=O` [Example 160, 6-allyl-N-[1-(2-cyanopyrimidin-4-yl)-4-piperidyl]-N-methyl-7-oxo-1H-pyrrolo[2,3-c]pyridine-4-carboxamide], the IC50 is 0.18 µM.
Take `C=CCn1cc(C(=O)N(C)C2CCN(c3ncnc4c3CCC4)CC2)c2cc[nH]c2c1=O` [Example 163, 6-allyl-N-[1-(6,7-dihydro-5H-cyclopenta[d]pyrimidin-4-yl)-4-piperidyl]-N-methyl-7-oxo-1H-pyrrolo[2,3-c]pyridine-4-carboxamide]: the half-maximal inhibitory concentration (IC50) stood at 0.091 µM.
`C=CCn1cc(C(=O)N(C)C2CCN(c3cc(C(C)C)ncn3)CC2)c2cc[nH]c2c1=O` [Example 167, 6-allyl-N-[1-(6-isopropylpyrimidin-4-yl)-4-piperidyl]-N-methyl-7-oxo-1H-pyrrolo[2,3-c]pyridine-4-carboxamide]: the half-maximal inhibitory concentration (IC50) was found to be 0.12 µM.
On the same count and under the same terms, then `C=CCn1cc(C(=O)N(C)C2CCN(c3cc(C)nc(C4CC4)n3)CC2)c2cc[nH]c2c1=O` [Example 168, 6-allyl-N-[1-(2-cyclopropyl-6-methyl-pyrimidin-4-yl)-4-piperidyl]-N-methyl-7-oxo-1H-pyrrolo[2,3-c]pyridine-4-carboxamide], with 0.042 µM; and `C=CCn1cc(C(=O)N(C)C2CCN(c3cncc(-n4cccn4)n3)CC2)c2cc[nH]c2c1=O` [Example 169, 6-allyl-N-methyl-7-oxo-N-[1-(6-pyrazol-1-ylpyrazin-2-yl)-4-piperidyl]-1H-pyrrolo[2,3-c]pyridine-4-carboxamide], with 0.023 µM; and `CN(C(=O)c1cn(C)c(=O)c2[nH]ccc12)C1CCN(c2ccccc2)CC1` [Example 172, N,6-dimethyl-7-oxo-N-(1-phenyl-4-piperidyl)-1H-pyrrolo[2,3-c]pyridine-4-carboxamide], with 1 µM.
Take `Cc1cccc(N2CCC(N(C)C(=O)c3cn(C)c(=O)c4[nH]ccc34)CC2)c1` [Example 173, N,6-dimethyl-N-[1-(m-tolyl)-4-piperidyl]-7-oxo-1H-pyrrolo[2,3-c]pyridine-4-carboxamide]: the half-maximal inhibitory concentration (IC50) came to 0.99 µM.
With `CN(C(=O)c1cn(C)c(=O)c2[nH]ccc12)C1CCN(c2cccc(C(F)(F)F)c2)CC1` [Example 174, N,6-dimethyl-7-oxo-N-[1-[3-(trifluoromethyl)phenyl]-4-piperidyl]-1H-pyrrolo[2,3-c]pyridine-4-carboxamide], the half-maximal inhibitory concentration (IC50) was 0.59 µM.
Same read-out and setting: the same measure for `CN(C(=O)c1cn(C)c(=O)c2[nH]ccc12)C1CCN(c2ccc(C(F)(F)F)cc2)CC1` [Example 175, N,6-dimethyl-7-oxo-N-[1-[4-(trifluoromethyl)phenyl]-4-piperidyl]-1H-pyrrolo[2,3-c]pyridine-4-carboxamide]: 0.76 µM; for `Cc1ccc(N2CCC(N(C)C(=O)c3cn(C)c(=O)c4[nH]ccc34)CC2)cc1` [Example 176, N,6-dimethyl-7-oxo-N-[1-(p-tolyl)-4-piperidyl]-1H-pyrrolo[2,3-c]pyridine-4-carboxamide]: 0.93 µM.
Consider `CCc1cccc(N2CCC(N(C)C(=O)c3cn(C)c(=O)c4[nH]ccc34)CC2)c1` [Example 177, N-[1-(3-ethylphenyl)-4-piperidyl]-N,6-dimethyl-7-oxo-1H-pyrrolo[2,3-c]pyridine-4-carboxamide], for which the concentration for half-maximal inhibition (IC50) worked out at 0.69 µM.
For `CCc1ccc(N2CCC(N(C)C(=O)c3cn(C)c(=O)c4[nH]ccc34)CC2)cc1` [Example 178, N-[1-(4-ethylphenyl)-4-piperidyl]-N,6-dimethyl-7-oxo-1H-pyrrolo[2,3-c]pyridine-4-carboxamide], the IC50 is 0.74 µM.
On the same count and under the same terms, the same measure for `CN1CCC(CCN(C)C(=O)c2cn(C)c(=O)c3[nH]ccc23)CC1` [Example 181, N,6-dimethyl-N-[2-(1-methyl-4-piperidyl)ethyl]-7-oxo-1H-pyrrolo[2,3-c]pyridine-4-carboxamide]: 0.73 µM.
For `CCN1CCC(CCN(C)C(=O)c2cn(C)c(=O)c3[nH]ccc23)CC1` [Example 182], the 50% inhibitory concentration (IC50) was 0.41 µM.
On the same count and under the same terms, then `CC(C)N1CCC(CCN(C)C(=O)c2cn(C)c(=O)c3[nH]ccc23)CC1` [Example 183], with 0.49 µM.
For `CN(CCC1CCN(C2CCC2)CC1)C(=O)c1cn(C)c(=O)c2[nH]ccc12` [Example 184], the half-maximal inhibitory concentration (IC50) worked out at 0.47 µM.
In the case of `COCCN1CCC(CCN(C)C(=O)c2cn(C)c(=O)c3[nH]ccc23)CC1` [Example 185], the IC50 worked out at 0.91 µM.
With `CN(CC1CCN(CC2CCCC2)CC1)C(=O)c1cn(C)c(=O)c2[nH]ccc12` [Example 187, N-[[1-(cyclopentylmethyl)-4-piperidyl]methyl]-N,6-dimethyl-7-oxo-1H-pyrrolo[2,3-c]pyridine-4-carboxamide], the half-maximal inhibitory concentration (IC50) was found to be 0.79 µM.
Regarding `CN1CCC(CN(C)C(=O)c2cn(C)c(=O)c3[nH]ccc23)CC1` [Example 188], the IC50 was 2 µM.
Take `CN(CC1CCN(C2CCC2)CC1)C(=O)c1cn(C)c(=O)c2[nH]ccc12` [Example 189]: the IC50 worked out at 1 µM.
On to `CCN1CCC(CN(C)C(=O)c2cn(C)c(=O)c3[nH]ccc23)CC1` [Example 191], for which the IC50 came out at 0.59 µM.
As for `CN(CC1CCN(C2CC2)CC1)C(=O)c1cn(C)c(=O)c2[nH]ccc12` [Example 192], the half-inhibitory concentration (IC50) came to 1.4 µM.
Turning to `CC(c1ccccc1)N1CCC(CN(C)C(=O)c2cn(C)c(=O)c3[nH]ccc23)CC1` (stereo not shown) [Example 197], the half-maximal inhibitory concentration (IC50) was 0.73 µM.
Consider `CN(CC1CCN(Cc2ccccc2F)CC1)C(=O)c1cn(C)c(=O)c2[nH]ccc12` [Example 201], for which the IC50 amounted to 0.99 µM.
Regarding `CN(CC1CCN(Cc2cccc(F)c2)CC1)C(=O)c1cn(C)c(=O)c2[nH]ccc12` [Example 202], the IC50 amounted to 1.3 µM.
`CN(CC1CCN(Cc2ccc(F)cc2)CC1)C(=O)c1cn(C)c(=O)c2[nH]ccc12` [Example 203]: the IC50 was found to be 1.1 µM.
As for `Cc1cccc(CN2CCC(CN(C)C(=O)c3cn(C)c(=O)c4[nH]ccc34)CC2)c1` [Example 204], the IC50 came out at 1.1 µM.
As to `CN(CC1CCN(C2CCCC2)CC1)C(=O)c1cn(C)c(=O)c2[nH]ccc12` [Example 205], the concentration for half-maximal inhibition (IC50) worked out at 0.71 µM.
`CN(CC1CCN(CC2CCCCC2)CC1)C(=O)c1cn(C)c(=O)c2[nH]ccc12` [Example 206]: the 50% inhibitory concentration (IC50) was 0.37 µM.
`CC(C)CN1CCC(N(C)C(=O)c2cn(C)c(=O)c3[nH]ccc23)CC1` [Example 207, N-(1-isobutyl-4-piperidyl)-N,6-dimethyl-7-oxo-1H-pyrrolo[2,3-c]pyridine-4-carboxamide]: the 50% inhibitory concentration (IC50) came out at 0.81 µM.
`CN(C(=O)c1cn(C)c(=O)c2[nH]ccc12)C1CCN(CC2CC2)CC1` [Example 208]: the IC50 stood at 1.2 µM.
On to `CN1CCC(C)(CNC(=O)c2cn(C)c(=O)c3[nH]ccc23)CC1` [Example 211, N-[(1,4-dimethyl-4-piperidyl)methyl]-6-methyl-7-oxo-1H-pyrrolo[2,3-c]pyridine-4-carboxamide], for which the concentration for half-maximal inhibition (IC50) turned out to be 2.2 µM.
